Here are results for one compound from patent publication US20250002455A1, “NEW N-PHENYLPYRROLAMIDE INHIBITORS OF DNA GYRASE AND TOPOISOMERASE IV WITH ANTIBACTERIAL ACTIVITY” (priority 2020, published 2025).

Each structure is given as a SMILES string. Some results are limits rather than exact numbers.

Assay [1] deals with E. spp. cloacae ATCC 13047. Nature of the assay: Microbroth dilution MIC (CLSI). It is filed as cell-based. To be noted: Enterobacter cloacae, ATCC13047; E. spp. cloacae ATCC 13047; read-out: MIC. In outline: (§1)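 Antimicrobial activity was measured by broth microdilution following CLSI guidance for aerobic and anaerobic bacteria, with compounds serially diluted two-fold in 100% DMSO; the minimum inhibitory concentration was the lowest concentration preventing visible growth.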
(In general: In broth dilution the organism is exposed to a series of concentrations in liquid medium.)

Assay [2] relates to A. baumannii ATCC 17978. Kind of assay: Microbroth dilution MIC (CLSI). It is filed as cell-based. To be noted: Acinetobacter baumannii, ATCC17978; A. baumannii ATCC 17978; read-out: MIC. Summed up:
as §1

Assay [3] concerns K. pneumoniae ATCC 10031. Nature of the assay: Microbroth dilution MIC (CLSI). It is filed as cell-based. To be noted: Klebsiella pneumoniae, ATCC10031; K. pneumoniae ATCC 10031; read-out: MIC. In outline: as §1
For assay [4], the system named is E. faecalis ATCC 29212. Nature of the assay: Microbroth dilution MIC (CLSI). It is filed as cell-based. The note with it: Enterococcus faecalis, ATCC29212; E. faecalis ATCC 29212; read-out: MIC. In outline:
as §1

Assay [5] has as its system P. aeruginosa ATCC 27853. Nature of the assay: Microbroth dilution MIC (CLSI). It is filed as cell-based. The note with it: Pseudomonas aeruginosa, ATCC27853; P. aeruginosa ATCC 27853; read-out: MIC. In outline:
as §1

Assay [6] has as its system S. aureus ATCC 29213. Nature of the assay: Microbroth dilution MIC (CLSI). It is filed as cell-based. To be noted: Staphylococcus aureus, ATCC29213; S. aureus ATCC 29213; read-out: MIC. Summed up: as §1
Assay [7] relates to E. coli ATCC 25922. Kind of assay: Microbroth dilution MIC (CLSI). It is filed as cell-based. The note with it: Escherichia coli, ATCC25922; E. coli ATCC 25922; read-out: MIC. In outline: as §1
Assay [8] deals with S. aureus ATCC 43300 (MRSA). Nature of the assay: Microbroth dilution MIC (CLSI). It is filed as cell-based. The note with it: Staphylococcus aureus; S. aureus ATCC 43300 (MRSA); read-out: MIC. Summed up: as §1
Assay [9] concerns the target T1, S. aureus DNA gyrase (Staphylococcus aureus, UniProt P0A0K8).
T1 construct: purchased Inspiralis
Kind of assay: biochemical. The note with it: S. aureus DNA gyrase, read-out: RA (residual activity of the enzyme). In outline: (§2)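 Triplex-capture format: plasmid bound to a biotinylated oligonucleotide on streptavidin plates after reaction at 37 °C for 30 min. The reaction was stopped with TF buffer (50 mM NaOAc pH 5.0, 50 mM NaCl, 50 mM MgCl2), and captured DNA was stained with SybrGOLD. IC50 values are the mean of three independent measurements.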

In assay [10] the target is T2, E. coli DNA gyrase (Escherichia coli, UniProt P0AES6).
T2 construct: purchased Inspiralis
Nature of the assay: biochemical. The note with it: E. coli DNA gyrase; read-out: IC50. In outline:
as §2

In assay [11] the target is DNA gyrase from Mycobacterium tuberculosis (Mycobacterium tuberculosis, UniProt P9WG45). Kind of assay: Gel-based supercoiling assay. It is filed as biochemical. The note with it: M. tuberculosis DNA gyrase. From the text: Example compound 18 was additionally evaluated against DNA gyrase from Mycobacterium tuberculosis using a gel-based supercoiling assay.
Sequence of DNA gyrase from Mycobacterium tuberculosis (P9WG47 whole entry): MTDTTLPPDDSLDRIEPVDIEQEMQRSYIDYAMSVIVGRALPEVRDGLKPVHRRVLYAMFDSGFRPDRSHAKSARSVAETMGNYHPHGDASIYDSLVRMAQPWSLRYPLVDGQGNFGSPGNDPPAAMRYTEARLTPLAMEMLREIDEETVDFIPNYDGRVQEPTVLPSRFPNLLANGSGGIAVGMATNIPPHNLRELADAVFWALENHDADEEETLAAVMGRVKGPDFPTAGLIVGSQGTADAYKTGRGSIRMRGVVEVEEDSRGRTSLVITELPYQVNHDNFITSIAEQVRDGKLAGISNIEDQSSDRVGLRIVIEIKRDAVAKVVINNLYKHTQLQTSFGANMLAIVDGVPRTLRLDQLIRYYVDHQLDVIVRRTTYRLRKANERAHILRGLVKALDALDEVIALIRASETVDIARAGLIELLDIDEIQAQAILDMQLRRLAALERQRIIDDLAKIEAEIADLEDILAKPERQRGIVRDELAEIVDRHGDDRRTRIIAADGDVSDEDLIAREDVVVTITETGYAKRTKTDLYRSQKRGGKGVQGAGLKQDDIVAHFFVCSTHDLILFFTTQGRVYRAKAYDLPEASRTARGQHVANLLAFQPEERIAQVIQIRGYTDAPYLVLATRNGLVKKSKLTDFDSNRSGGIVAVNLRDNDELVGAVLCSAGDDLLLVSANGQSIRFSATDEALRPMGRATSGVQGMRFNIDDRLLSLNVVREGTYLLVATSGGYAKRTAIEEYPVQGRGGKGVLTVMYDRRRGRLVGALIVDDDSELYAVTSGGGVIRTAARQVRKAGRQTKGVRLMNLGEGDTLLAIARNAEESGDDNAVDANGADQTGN
Sequence of DNA gyrase from Mycobacterium tuberculosis (P9WG45 whole entry): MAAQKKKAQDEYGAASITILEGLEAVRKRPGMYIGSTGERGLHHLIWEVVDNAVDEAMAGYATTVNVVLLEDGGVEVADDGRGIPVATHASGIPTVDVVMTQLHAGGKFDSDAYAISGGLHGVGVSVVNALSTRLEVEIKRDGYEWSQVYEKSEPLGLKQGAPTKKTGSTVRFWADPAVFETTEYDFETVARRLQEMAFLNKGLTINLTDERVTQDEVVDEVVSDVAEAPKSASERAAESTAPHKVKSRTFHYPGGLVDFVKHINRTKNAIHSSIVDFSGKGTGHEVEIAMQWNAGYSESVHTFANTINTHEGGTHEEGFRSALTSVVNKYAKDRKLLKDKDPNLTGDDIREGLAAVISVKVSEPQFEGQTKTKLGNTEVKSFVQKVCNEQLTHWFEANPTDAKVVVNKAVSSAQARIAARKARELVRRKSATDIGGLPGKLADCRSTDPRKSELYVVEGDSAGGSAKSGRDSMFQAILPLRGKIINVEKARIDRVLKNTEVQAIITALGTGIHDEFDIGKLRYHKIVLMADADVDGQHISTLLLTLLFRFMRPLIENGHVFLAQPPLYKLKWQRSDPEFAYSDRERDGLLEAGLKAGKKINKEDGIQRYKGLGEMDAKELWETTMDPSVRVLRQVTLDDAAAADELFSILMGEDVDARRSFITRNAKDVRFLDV
Assay [12] addresses T3, S. aureus topoisomerase IV (Staphylococcus aureus, UniProt P0C1S7).
T3 construct: purchased Inspiralis
Kind of assay: Topoisomerase IV inhibition assay (Inspiralis, streptavidin-coated plates). It is filed as biochemical. To be noted: S. aureus topo IV; read-out: IC50. As to the method: Inhibitory activities for compounds of the present invention were determined on E. coli and S. aureus DNA gyrase and topoisomerase IV in an assay from Inspiralis on streptavidin-coated 96-well microtiter plates from Thermo scientific Pierce. […] After washing off the unbound oligonucleotide, the enzyme test was performed. […] Reaction solutions were incubated at 37° C. for 30 min. After that, the TF buffer (50 mM NaOAc with pH 5.0, 50 mM NaCl and 50 mM MgCl2) was added to terminate the enzymatic reaction. After additional incubation for 30 min at rt, during which biotin-oligonucleotide-plasmid triplex was formed, the unbound plasmid was washed off using TF buffer and SybrGOLD in T10 buffer (10 mM Tris HCl with pH 8.0 and 1 mM EDTA) was added. […] Initial screening was done at 100 or 10 nM concentration of inhibitors against E. coli DNA gyrase or 1 μM or 100 nM concentration against S. aureus DNA gyrase and E. coli and S. aureus topo IV. […] GraphPad Prism 6.0 software was used to calculate the IC50 values. The result is given as the average value of three independent measurements. […] Chemoth.

T1 sequence (P20831 whole entry): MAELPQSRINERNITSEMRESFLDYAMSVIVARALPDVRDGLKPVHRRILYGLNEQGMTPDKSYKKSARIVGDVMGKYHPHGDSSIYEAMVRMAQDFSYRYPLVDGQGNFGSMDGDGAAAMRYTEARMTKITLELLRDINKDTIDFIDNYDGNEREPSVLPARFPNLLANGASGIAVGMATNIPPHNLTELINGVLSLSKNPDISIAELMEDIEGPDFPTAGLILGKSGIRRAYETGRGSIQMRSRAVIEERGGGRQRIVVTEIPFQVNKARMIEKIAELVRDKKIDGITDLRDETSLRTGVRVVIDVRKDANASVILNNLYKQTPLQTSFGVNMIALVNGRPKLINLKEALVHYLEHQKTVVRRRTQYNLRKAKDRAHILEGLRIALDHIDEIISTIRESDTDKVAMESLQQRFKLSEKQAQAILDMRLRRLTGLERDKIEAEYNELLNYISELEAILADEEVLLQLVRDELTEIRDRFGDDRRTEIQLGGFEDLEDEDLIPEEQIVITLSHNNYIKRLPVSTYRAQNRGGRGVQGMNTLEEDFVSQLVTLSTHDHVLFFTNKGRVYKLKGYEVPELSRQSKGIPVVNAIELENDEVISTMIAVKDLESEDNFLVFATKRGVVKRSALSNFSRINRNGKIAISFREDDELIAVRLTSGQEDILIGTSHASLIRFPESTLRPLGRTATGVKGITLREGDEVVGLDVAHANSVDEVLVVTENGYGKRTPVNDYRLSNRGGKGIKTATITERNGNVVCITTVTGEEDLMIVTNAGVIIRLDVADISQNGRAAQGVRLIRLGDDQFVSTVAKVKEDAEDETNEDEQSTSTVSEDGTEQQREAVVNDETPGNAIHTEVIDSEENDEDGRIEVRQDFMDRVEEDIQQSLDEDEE
T1 sequence (P0A0K8 whole entry): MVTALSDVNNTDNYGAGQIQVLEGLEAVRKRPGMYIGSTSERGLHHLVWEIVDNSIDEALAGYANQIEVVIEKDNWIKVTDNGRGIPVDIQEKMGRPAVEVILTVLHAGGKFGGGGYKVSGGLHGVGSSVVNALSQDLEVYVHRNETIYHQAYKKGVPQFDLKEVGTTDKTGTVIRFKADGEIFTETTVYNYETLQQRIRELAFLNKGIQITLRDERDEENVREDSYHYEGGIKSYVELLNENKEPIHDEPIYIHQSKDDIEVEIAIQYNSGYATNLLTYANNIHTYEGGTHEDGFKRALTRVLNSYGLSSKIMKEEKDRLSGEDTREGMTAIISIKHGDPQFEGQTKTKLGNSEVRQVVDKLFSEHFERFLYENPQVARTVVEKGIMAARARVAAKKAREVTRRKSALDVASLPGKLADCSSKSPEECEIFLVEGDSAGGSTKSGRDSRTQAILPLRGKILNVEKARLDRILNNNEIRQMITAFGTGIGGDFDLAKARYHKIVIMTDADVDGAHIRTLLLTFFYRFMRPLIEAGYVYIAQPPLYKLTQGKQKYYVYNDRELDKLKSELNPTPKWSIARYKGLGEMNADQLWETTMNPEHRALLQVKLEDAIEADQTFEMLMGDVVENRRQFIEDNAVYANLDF
T3 sequence (P0C1U9 whole entry): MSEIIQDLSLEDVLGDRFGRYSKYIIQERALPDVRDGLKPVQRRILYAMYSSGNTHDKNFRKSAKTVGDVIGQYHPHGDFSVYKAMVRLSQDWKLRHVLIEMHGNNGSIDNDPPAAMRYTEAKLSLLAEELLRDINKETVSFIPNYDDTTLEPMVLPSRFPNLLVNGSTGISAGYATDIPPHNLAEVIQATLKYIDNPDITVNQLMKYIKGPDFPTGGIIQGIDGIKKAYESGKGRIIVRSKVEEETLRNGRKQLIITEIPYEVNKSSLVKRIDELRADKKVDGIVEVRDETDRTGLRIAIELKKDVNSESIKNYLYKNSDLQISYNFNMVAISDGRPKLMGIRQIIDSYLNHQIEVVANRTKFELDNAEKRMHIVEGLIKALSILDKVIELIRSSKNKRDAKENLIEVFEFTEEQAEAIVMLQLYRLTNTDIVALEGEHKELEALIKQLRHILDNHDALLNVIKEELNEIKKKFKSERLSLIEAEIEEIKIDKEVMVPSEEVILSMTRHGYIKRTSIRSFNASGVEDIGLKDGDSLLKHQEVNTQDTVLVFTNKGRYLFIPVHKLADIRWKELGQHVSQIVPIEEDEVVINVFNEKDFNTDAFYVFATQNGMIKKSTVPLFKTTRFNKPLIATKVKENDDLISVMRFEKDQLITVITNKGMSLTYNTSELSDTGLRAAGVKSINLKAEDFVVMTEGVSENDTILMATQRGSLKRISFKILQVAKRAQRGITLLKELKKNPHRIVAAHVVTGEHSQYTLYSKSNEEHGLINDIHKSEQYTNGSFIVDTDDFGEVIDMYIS
T3 sequence (P0C1S7 whole entry): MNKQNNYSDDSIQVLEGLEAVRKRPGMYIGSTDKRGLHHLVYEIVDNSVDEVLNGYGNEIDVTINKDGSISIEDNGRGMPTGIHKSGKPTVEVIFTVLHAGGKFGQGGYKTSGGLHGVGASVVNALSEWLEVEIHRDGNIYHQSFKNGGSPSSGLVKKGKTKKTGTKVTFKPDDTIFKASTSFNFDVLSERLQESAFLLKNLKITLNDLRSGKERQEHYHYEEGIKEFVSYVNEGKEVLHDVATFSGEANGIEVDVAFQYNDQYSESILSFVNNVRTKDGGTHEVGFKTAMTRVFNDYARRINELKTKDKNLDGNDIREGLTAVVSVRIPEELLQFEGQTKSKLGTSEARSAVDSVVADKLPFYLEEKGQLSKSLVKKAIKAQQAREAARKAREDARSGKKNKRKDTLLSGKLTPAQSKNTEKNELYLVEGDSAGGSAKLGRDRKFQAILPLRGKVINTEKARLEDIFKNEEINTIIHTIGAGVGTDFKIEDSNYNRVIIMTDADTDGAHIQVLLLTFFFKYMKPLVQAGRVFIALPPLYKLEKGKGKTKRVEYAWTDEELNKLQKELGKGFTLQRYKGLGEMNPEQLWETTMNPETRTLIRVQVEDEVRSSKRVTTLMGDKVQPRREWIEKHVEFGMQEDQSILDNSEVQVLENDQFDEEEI

In the case of `Cc1[nH]c(C(=O)Nc2ccc(-c3n[nH]c(=O)o3)cc2N2CCC[C@H](N)C2)c(Cl)c1Cl.Cl` [Example 18, (S)-1-(2-(3,4-Dichloro-5-methyl-1H-pyrrole-2-carboxamido)-5-(5-oxo-4,5-dihydro-1,3,4-oxadiazol-2-yl)phenyl)piperidin-3-aminium chloride], the minimal inhibitory concentration (MIC) (commonly the lowest concentration that inhibits growth of the organism) is over 64 µg/mL in [1]; 16 µg/mL in assay [2]; 0.25 µg/mL in assay [3]; 2 µg/mL in assay [4]; 64 µg/mL in [5]; 2 µg/mL in assay [6]. The MIC in assay [7] came to 16 µg/mL; in assay [8] it was 4 µg/mL. In addition, in assay [9] (0.1 μM compound), the remaining activity at 0.1 µM stood at 41%. The remaining activity at 1 µM in [9] (1 μM compound) amounted to 11%. The IC50 (in general, the point on the concentration scale where inhibition reaches its midpoint) in [10] amounted to 27.2 nM; in [11], 26.5 ± 2.1 nM; in assay [12], 406 nM.
